System: DU145 prostate cancer cells
Test: High content imaging-based screen (Cellomics) for lysosome migration inhibitors
Assay type: cell-based
Conditions: pH 6.4 media, 2 micrograms per ml, 16 hours
Description: DEVELOPMENT OF A HIGH CONTENT IMAGING-BASED SCREEN: The followings process was followed to identify chemicals that were lysosome migration inhibitors. DU145 prostate cancer cells were seeded in 96 well flat bottom black walled plates at 4,500 cells per well. All compounds and controls were exposed to RPMI bicarbonate buffered media (pH 6.4). RPMI buffered media titrated at pH of 6.4-6.8 was added to column 12 after the media was removed and serves as negative control (low acidic pH so lysosomes move out). […] The 4 compound libraries chosen to screen were the NIH Clinical Collection (450 drugs), Prestwick (1200 drugs), Prestwick phytochemical and the Green Pharma collection (xx drugs). Compounds were diluted with buffered RPMI media to 2 micrograms per ml concentrations. Individual compounds to be screened were added robotically as a single compound per well through columns 2-11. Plates were incubated at 37 degrees in 5% CO2 for 16 hours then the medium was removed and the cells were fixed with 4% cold paraformaldehyde (Sigma-Aldrich) for 20 minutes at 4 degrees. Fixed cells were washed once with PBS. To stain lysosomes, cells were incubated for 1 hour with LAMP1 antibody (H4A3) diluted in BSP (containing 0.25% BSA and 0.1% saponin in PBS) at 1/200. Cells were then washed with PBS 3 times then incubated for 1 hour with Dylight Donkey anti-mouse diluted at 1/200 in BSP. To stain the nucleus, cells were then washed with PBS 3 times and incubated for 20 minutes with 1×DAPI diluted in PBS. DAPI was washed off with PBS and cells were maintained in PBS for the duration of the screening process. Plates were mounted and read in a Cellomics Arrayscan automated fluorescence imager. The Cellomics platform allows for high content throughput screening by combining fluorescence microscopy with a multi-parameter image analysis. Cells were photographed using 20× objective in 2 fluorescent channels. A total of 15 different fields in each well, and at least 300 cells were imaged per well. The biocompartmental analysis algorithm was used to identify each cell by its nucleus (channel 1 recognized by the DAPI stain) and to generate a cytoplasmic mask (ring) of 12 pixels width in which the inner ring was 6 pixels away from the nucleus. The algorithm calculates the number of lysosomes inside the ring as indicated by fluorescent LAMP-1 positive puncta in channel 2 as a mean ring spot count. Therefore, when lysosomes move away from the nucleus and disperse throughout the cytoplasm, the number of spots representing lysosomes inside the cytoplasmic ring increases (low pH conditions). By contrast, lysosomes cluster near the nucleus the numbers of spot inside the cytoplasmic ring decreases (EIPA treated).
Z′-factor is a simple statistical coefficient used to assess performance and quality of the assay in high-throughput screening. It is calculated with the formula: Z′=1-(3σct+3σcb)/|μct−μcb|, where p indicates mean, a represents standard deviation, “ct” indicates the positive control, “cb” indicates the negative control. […] If the Z′ is more than 0.5, the assay is considered to be high quality assay.
The Z′ factor of the assay was determined from the EIPA (positive control) and low pH (negative control). Experiments were run in duplicate. Only plates with positive Z′ factor was used for analysis.

Row | Structure (SMILES) | hit in screen for lysosome migration inhibitors (mean ring spot count)
1 | CN1[C@@H]2CC[C@H]1C[C@@H](OC1c3ccccc3CCc3ccccc31)C2 [deptropine, 3a-[(10, 11-dihydro-5H-dibenzo[a,d]cyclohepten-5-yl)oxy]1aH,5aH-tropane] | hits
2 | CN1CCC(=C2c3ccccc3CCc3sccc32)CC1 [pizotifen, 4-(1-methyl-4-piperidylidine)-9,10-dihydro-4H-benzo-[4,5]cyclohepta[1,2]-thiophene] | hits

— patent publication US20200330447A1, “CANCER TREATMENT VIA REPOSITIONED TRICYCLIC ANTI-DEPRESSANT-LIKE DRUGS AS ANTI-CANCER AGENTS AND NEW COMBINATIONS OF SUCH DRUGS” (Board of Supervisors of Louisiana State University and …, priority 2015, published 2020)
